Data taken from BindingDB's records for doi:10.1016/j.bmcl.2015.05.018 (Martin-Luther-University Halle-Wittenberg, 2015).

Columns and labels:
[1] = Inhibition of human P-gp expressed in mouse T-cell lymphoma assessed as potentiation of daunorubicin-induced cellular toxicity by measuring daunorubicin IC50 at 10 uM by MTT assay (Rvb = 8.26 +/- 0.62 uM)
[2] = Inhibition of human P-gp expressed in mouse T-cell lymphoma assessed as potentiation of daunorubicin-induced cellular toxicity by measuring daunorubicin IC50 at 5 uM by MTT assay (Rvb = 8.26 +/- 0.62 uM)

| Compound | IC50 [1] | IC50 [2] |
| --- | --- | --- |
| CCOC(=O)C1=CN(Cc2ccccc2)c2ccccc2C1c1cccc(OC)c1 (stereo not drawn) | 860 nM |  |
| CCOC(=O)C1=CN(Cc2ccccc2)c2ccccc2C1c1ccc(OC)c(OC)c1 (stereo not drawn) | 390 nM | 4760 nM |
